In patent publication US5519115A, “Reverse antimicrobial peptides” (priority 1993, dated 1996):

Legend:
P3 Fusarium = test: Antifungal bioassay (MCIC, spore germination); format: cell-based, P3 Fusarium (field isolate); details: 10^7 spores/test; mean after 24 hours of treatment, at least three replicates
Protocol: Fungi were grown on an appropriate medium, in this case a potato dextrose agar plate, for several weeks. At the end of that period, the plate was flooded with about 5 mL of sterile distilled water to harvest spores. The spore concentration was determined by use of a hemocytometer and the spore suspension was stored in a sterile tube at 4° C. until it was needed. Then 82 microliters of potato dextrose broth and 3 microliters of spore suspension (ranging from 10^5 to 10^7 spores total) were added to 12 wells in a 96 well microtiter plate for each AMPPP to be tested, with 1-4 replicate sets of 12 wells prepared for each AMPPP within a single experiment. […] The amount of spore germination and fungal growth was recorded as a quantitative measurement at each observation time using a system of pluses and minuses: [-] meant no germination having occurred, [+] meant swollen spores with an extended germ tube, [++] meant the beginnings of mycelial growth with the overall appearance of a loose lattice, and [+++] meant a dense mycelial growth with the overall appearance of a thick opaque meshwork. The MCIC value for each AMPPP tested was then recorded, where the MCIC value is defined as the lowest peptide concentration at which no spore germination occurred (rating=[-]). […]

[1] = test system: Erwinia carotovora carotovora strain SR319 (Ecc SR319); test: Antibacterial bioassay (MCIC); format: cell-based
Protocol: Erwinia carotovora carotovora strain SR319 (Ecc SR319) (a gift of Dr. C. H. Liao, USDA-ARS, Philadelphia, Pa.) was streaked on a plate of Luria-Bertani ("LB") broth agar and grown overnight at 28° C. After 24 hours, a loopful of Ecc SR319 was picked from the agar plate and was added to 3 ml of LB broth (10 g Bacto-tryptone, 5 g Bacto-yeast extract, and 10 g sodium chloride per liter of solution; autoclaved sterile) in a capped sterile 10 ml test tube. This culture was grown overnight before its optical density at 630 nm was recorded using a Dynatech MR 600 microplate reader (Dynatech Laboratories, Inc., Alexandria, Va.). A portion of the overnight culture was adjusted with Luria broth to obtain a culture with an optical density at 630 nm of 0.2. About 250 microliters of this culture was added to 2250 microliters of Luria broth in a capped, sterile 10 ml test tube before this diluted culture was grown for 3-4 hours at 28° C. in a shaking incubator until the optical density of the freshly grown culture at 630 nm reached 0.2. […] The optical density of each Ecc SR319 culture well was recorded at 20 hours and then at 44 hours. A minimum complete inhibitory concentration (MCIC) was then determined for each replicate set of varying peptide concentrations at which no bacterial growth was observed. […]

[2] = test system: Helminthosporium carbonum; test: Antifungal bioassay (MCIC, spore germination); format: cell-based; details: 10^6 spores/test; mean after 24 hours of treatment
Protocol: (§1) Fungi were grown on an appropriate medium, in this case a potato dextrose agar plate, for several weeks. At the end of that period, the plate was flooded with about 5 mL of sterile distilled water to harvest spores. The spore concentration was determined by use of a hemocytometer and the spore suspension was stored in a sterile tube at 4° C. until it was needed. Then 82 microliters of potato dextrose broth and 3 microliters of spore suspension (ranging from 10^5 to 10^7 spores total) were added to 12 wells in a 96 well microtiter plate for each AMPPP to be tested, with 1-4 replicate sets of 12 wells prepared for each AMPPP within a single experiment. In several instances, more than one spore concentration was used in order to determine the efficacy of certain AMPPPs as a function of the number of target spores. Stock solutions of each AMPPP were prepared at a concentration of 1 mg/mL and 0-15 microliters of each peptide stock solution were added to a single well in the microtiter plate followed by a sufficient volume of water to bring the total well volume to 100 microliters. […] Typical peptide volumes assayed were 0, 1, 2, 3, 4, 5, 6, 7, 8, 9, 10, and 15 microliters, which corresponds to a final peptide concentration in the range of 0-150 micrograms/mL. The microtiter plates were sealed with parafilm and incubated at room temperature for 48 hours. The fungal growth was observed after 24 and 48 hours by microscope using a 4× and/or a 10× objective lens. The amount of spore germination and fungal growth was recorded as a quantitative measurement at each observation time using a system of pluses and minuses: [-] meant no germination having occurred, [+] meant swollen spores with an extended germ tube, [++] meant the beginnings of mycelial growth with the overall appearance of a loose lattice, and [+++] meant a dense mycelial growth with the overall appearance of a thick opaque meshwork. The MCIC value for each AMPPP tested was then recorded, where the MCIC value is defined as the lowest peptide concentration at which no spore germination occurred (rating=[-]). […]

Cercospora sp. = test: Antifungal bioassay (MCIC, spore germination); format: cell-based; details: 10^6 spores/test; mean after 24 hours of treatment
Protocol: as §1

Trichoderma reesei = test: Antifungal bioassay (MCIC, spore germination); format: cell-based; details: 10^6 spores/test; mean after 24 hours of treatment
Protocol: as §1

Met-Mag 1 dimer (head-to-tail) [Peptide No. 9]
MCIC Values With: P3 Fusarium (P3 Fusarium): 15+/-6 micrograms per mL
MCIC Values (Ecc SR319) ([1]; mean after 20 hours of treatment, at least three replicate experiments): 33 +/- 5 micrograms per mL
activity against Ecc SR319 compared with parent monomers (in words) ([1]; tested at equivalent microgram per mL quantities, parent monomers Pep Nos. 1, 2, 4, and 12): better activity than at least one of the parent monomers
MCIC Values With: Helminthosporium carbonum [2]: 63+/-29 micrograms per mL
MCIC Values With: Cercospora sp. (Cercospora sp.): 25+/-10 micrograms per mL
MCIC Values With: Trichoderma reesei (Trichoderma reesei): 24+/-12 micrograms per mL
